Experimental data reported in patent publication US9017654B2, “Preparation for vaccination, vaccination method and use of a vaccination preparation” (priority 2004, dated 2015).

Experiments:
[1] = system: CFSE-marked syngenic spleen cells charged with SGP peptide (target cells for the CTLs); assay: In vivo killer assay; set-up: species or system mice; conditions: for specific reaction (FIG. 2, functionality of transcutaneously activated CTL): transcutaneous treatment, in vivo killer assay 6 days after immunisation
Protocol: The specific cytotoxic functionality of the activated cells was determined by means of what is known as an in vivo killer assays 6 days after the last immunisation. For this purpose spleen cells marked with CFSE (5,6-carboxyfluorescein diacetate succinimidylester, Molecular Probes) from syngenic mice were used as target cells for the cytotoxic T cells (CTLs). Half of the cells were dyed with 3 μM CFSE, the other half with 0.3 μM CFSE. The cells marked with 3 μM CFSE were charged with the synthetic SGP peptide (10 μM peptide; 40×10^6 cells per ml ISC medium; 1 h; 37° C.) and these were then washed twice with medium and twice with PBS. The cells marked with 0.3 μM CFSE were only incubated in ISC medium and also washed. The cells were mixed in a ratio of 1:1 and the mice were injected in vivo with 15×10^6 cells in 300 μl PBS in each case. After 18 h the mice were killed and the spleen cells removed and flow cytometrically analysed. The CFSE-positive cells were counted in a FACS-Canto flow cytometer. The specific lysis resulted from the ratio of cell counts of the cells charged with peptide and strongly marked with CFSE and the cells that were not charged with peptide and were weakly marked with CFSE. Since the two cell populations had been used in a ratio of 1:1 the number of cells not charged with peptide tallies with the original number of cells charged with peptide. The specific lysis is then calculated as follows:
[formula] [formula] CFSE Marking
The spleen cells were prepared as described above. Following ACK lysis the cells were resuspended in 10 ml PBS, counted and adjusted to 2×10^7 cells per ml. The cell suspension was mixed with an adequate volume of a 6 μM or 0.6 μM CFSE solution (in PBS) and incubated for 4 min at 37° C. The reaction was then stopped following addition of double the volume of ISC medium supplemented with 10% foetal calf serum (FCS). The cells were washed twice with FCS-free medium and counted.
To determine the functionality of the activated cells an in vivo killer assay was carried out 6 days after immunisation. For this purpose syngenic spleen cells marked with a high CFSE concentration were charged with peptide, mixed 1:1 with cells marked with a weak CFSE concentration and not charged with peptide and transferred i.v. into the mice. […] The fluorescence of the spleen cells in the FL-1 channel (CFSE) can be seen in each case. The lysis was calculated to the number of uncharged cells and is given in percent (B).
To determine the functionality of the activated cells an in vivo killer assay was carried out 6 days after immunisation. […] The fluorescence of the spleen cells in the FL-1 channel (CFSE) can be seen in each case. The specific lysis was calculated to the number of uncharged cells and is given in percent.

[2] = system: TCR transgenic cytotoxic T cells (CTL), CD45.1-positive CD8+; assay: Analysis of the number of adoptively transferred transgenic cytotoxic T cells (CTL) in blood/spleen after immunisation (flow cytometry); assay type: in vivo, mice
Excerpt: In this model a defined transgenic, which codes for a specific T cell receptor that recognises a specific MHC class I ligand ([…] (SEQ ID NO: 23); abbreviated to SGP) from the adenovirus type 5 in the context of MHC class I (H2-D^b), was introduced into mice. As already characterised by the inventors [“M. Hofmann, M. Radask, G. Rechtsteiner, K. Wiemann, M. Grander, U. Bien-Gräter, R. Offfringa, R.E.M. Toes, H.G. Rammensee, H. Schild; T cell avidity determines the level of CTL activation; Eur. J. Immunol. 2004: 34, 1798 to 1806”], the cytotoxic T cells (CTL) from these animals were only activated if they came into contact with this MHC class I ligand SGP in the context of H2-D^b. To be able to follow the activation of this CTL in the recipient animal the non-activated (naïve) CTL from transgenic donor mice was intravenously (i.v.) injected into syngenic recipient mice which differed in the allele of a lymphocyte marker (CD45.1 on transgenic cells or CD45.2 on cells of the recipient mice). […]
To measure the proliferation of the adoptively transferred cells blood was taken from the tail vein of the mice 4 days after the last immunisation and the blood sample was analysed flow cytometrically. […] For flow cytometric analysis of the cells they were stained with fluorescence-marked antibodies (anti-CD8 APC-Cy7-conjugated, anti-CD45.1 PE-conjugated (commercially available from Becton-Dickinson Pharmingen, Hamburg)) and, more precisely, for 30 min in 50 μl FACS buffer on ice in 96-well circular bottomed plates. The cells were washed twice with FACS buffer and analysed in a FACS-canto flow cytometer (Becton-Dickinson Pharmingen, Hamburg). […]
The transgenic CD8^+ cell content in the total population of CD8^+ cells was flow cytometrically determined in the blood or spleen. […] The fluorescence in the FL-2 channel (PE) of the CD8^+ lymphocytes can be seen in each case. […] In all mice the transgenic CD8^+ cells content prior to immunisation and 4 days after immunisation was determined in the spleen (A).

| Compound | specific reaction (FIG. 2, functionality of transcutaneously activated CTL) [1] | Specific lysis (%) ([1]; Group 3: 50 μg peptide (i.d.) alone, 6 days after immunisation) | functional activation of the CTL ([1]; immunisation with peptide only (group Mouse 3), FIG. 1B) | % transgenic CD8+ in total CD8+, Day 4 Blood ([2]; Group 3: 50 μg peptide (i.d.) alone, day 4, blood) [%] | % transgenic CD8+ in total CD8+, Day 6 Spleen ([2]; Group 3: 50 μg peptide (i.d.) alone, day 6, spleen) [%] | increase in transgenic cells ([2]; peptide applied on its own (without additives, adjuvants)) |
| --- | --- | --- | --- | --- | --- | --- |
| CC(C)Cn1cnc2c(N)nc3ccccc3c21 [imiquimod, 1-(2-methylpropyl-)1H-imidazo[4,5-c]quinolin-4-amine, reference compound] | did not exhibit a specific reaction |  |  |  |  |  |
| SGPSNTPPEI (Adenovirus type 5) [peptide, MHC class I ligand (H2-Db) from the E1A protein of adenovirus type 5, synthetically produced] | did not exhibit a specific reaction | 3.51 | does not lead to functional activation | 4.38 | 2.04 | only a marginal increase |
